The structures appear in SMILES notation.

The test deals with T1, integrin α4β1 (Homo sapiens, UniProt P05556+P13612).
T1 construct: endogenous in cells; host or cells: Jurkat cells
The experiment in a line: Inhibition of α4β1-dependent cell adhesion (Jurkat cells to peptide CS-1). The format is cell-based. Conditions: adhesion of Jurkat cells to CS-1-coated plates; products preincubated with cells at 37° C. for 30 minutes; at least 6 product concentrations. On the procedure: Inhibition of α4β1-Dependent Cell Adhesion
Inhibition of α4β1-dependent cell adhesion was assayed by evaluating the interaction between the peptide CS-1 (H-CLHGPEILDVPST-CONH2) and Jurkat cells (T lymphocyte cell line expressing activated integrin α4β1 but not integrin α4β7) after preincubation of said cells with the compounds of formula I to be tested. The peptide CS-1 was synthesized by conventional solid phase chemistry and purified by HPLC. Its identity was determined by elemental analysis and mass spectroscopy.
1.—Preparation of CS-1-Coated Plates
96-black well plates (Costar 3925) were used. 200 μL of 2% bovine serum albumin solution (BSA, Sigma α4503) was added per well and the plate was incubated for 2 hours at 37° C. The solution was discarded and the plate was washed twice with 200 μL of phosphate buffered saline solution (PBS, Gibco 14190-094) per well. Then, 200 μL of 10 μg/mL N-succinimidyl 3-(2-pyridyldithio)propionate solution (SPDP, Sigma P-3415) was added per well, and the plate was incubated at 37° C. for 30 minutes. The remaining solution was discarded and the plate was twice washed with 200 μL per well of PBS. Next, 200 μL of 25 μg/mL CS-1 peptide solution (equivalent to 5 μg/well) was added per well and the plate was incubated at 37° C. for 2 hours and then overnight at 4° C.
2.—Jurkat Cell Line: Culture and Fluorescent Labelling
Jurkat cells were kept in culture at a density comprised between 2×10^5 and 1.5×10^6 cells/mL in 1640 RPMI medium (Gibco 21875-034) enriched with 10% fetal calf serum (FCS, Gibco 10270-106).
50×10^6 cells were extracted, centrifuged (1200 rpm, 10 min, room temperature) and the medium was discarded. Cells were resuspended in 5 mL of RPMI, and 10 μL of a 1 mM solution of the fluorophore calceine.AM (Molecular Probes, C-3100) was added. The suspension was incubated for 30 min at 37° C. in the darkness, with occasional shaking. 40 mL of RPMI was added to stop the labelling and the suspension was centrifuged (1200 rpm, 10 min, room temperature). The medium was discarded, and the labelled cells were washed with 40 mL of RPMI in order to remove the unincorporated fluorescent probe. Finally, cells were resuspended in RPMI enriched with 10% FCS to obtain a 8×10^6 cells/mL suspension.
The plate previously prepared was twice washed with 200 μL per well of PBS and blocked with 200 μL of 1% BSA for at least 1 hour at room temperature.
The products to be tested were dissolved in dimethylsulfoxide at a concentration of 10 mM and dilutions thereof were prepared in RPMI medium enriched with 10% FCS. The products were preincubated with the Jurkat cells at 37° C. for 30 minutes, at a product concentration comprised between 1 nM and 10 μM, at a cell density of 4×10^6 cells/mL and at a maximal dimethylsulfoxide concentration of 0.1%.
100 μL of the resulting cell-product supsension was added per well (cellular density 4×10^5 cells/well). The product was omitted in the control wells and cells or CS-1 were omitted in the blanks. The plate was incubated for 60 min at room temperature in the-darkness, was twice washed with 200 μL per well of RPMI and then 100 μL of PBS was added. The plate was read with a fluorescence reader at an excitation wavelength of 485 nm and at an emission wavelength of 530 nm.
Maximal adhesion (100%) was determined as the average of the fluorescence intensities (FI) of the control wells, and the minimal adhesion as the average FI of the blanks. The adhesion inhibition percentage was determined using the following formula: [formula]
The results are expressed as the IC50 values (concentration producing 50% inhibition). IC50 values were calculated by testing at least 6 product concentrations and by adjusting the inhibition percentages to a dose-response curve of variable slope.

T1 sequence (P13612 34-1032): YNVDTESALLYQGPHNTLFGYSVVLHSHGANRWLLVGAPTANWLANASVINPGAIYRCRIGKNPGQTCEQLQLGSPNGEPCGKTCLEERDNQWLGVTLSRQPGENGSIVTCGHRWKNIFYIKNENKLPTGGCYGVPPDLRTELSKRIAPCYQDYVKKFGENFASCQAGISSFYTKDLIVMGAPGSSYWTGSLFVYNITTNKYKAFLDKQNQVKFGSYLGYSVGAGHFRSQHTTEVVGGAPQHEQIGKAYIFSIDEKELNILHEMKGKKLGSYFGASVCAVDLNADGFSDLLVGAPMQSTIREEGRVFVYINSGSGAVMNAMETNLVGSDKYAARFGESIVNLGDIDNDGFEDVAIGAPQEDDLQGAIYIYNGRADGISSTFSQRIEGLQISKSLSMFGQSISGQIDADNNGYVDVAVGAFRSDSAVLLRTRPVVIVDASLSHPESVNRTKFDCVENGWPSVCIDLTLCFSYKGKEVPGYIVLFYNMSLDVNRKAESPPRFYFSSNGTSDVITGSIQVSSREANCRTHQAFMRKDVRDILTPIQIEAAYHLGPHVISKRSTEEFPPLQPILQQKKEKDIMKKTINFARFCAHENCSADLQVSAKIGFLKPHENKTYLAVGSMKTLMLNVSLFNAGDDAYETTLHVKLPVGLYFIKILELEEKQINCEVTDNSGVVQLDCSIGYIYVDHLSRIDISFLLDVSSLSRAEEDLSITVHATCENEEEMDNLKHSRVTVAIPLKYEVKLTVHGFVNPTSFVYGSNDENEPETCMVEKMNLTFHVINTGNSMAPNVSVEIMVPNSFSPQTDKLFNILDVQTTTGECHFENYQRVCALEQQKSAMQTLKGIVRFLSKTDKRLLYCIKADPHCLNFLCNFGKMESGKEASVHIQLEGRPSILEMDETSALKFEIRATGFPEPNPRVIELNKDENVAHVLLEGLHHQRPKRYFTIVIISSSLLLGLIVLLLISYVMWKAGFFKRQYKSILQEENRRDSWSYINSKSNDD
T1 sequence (P05556 21-798): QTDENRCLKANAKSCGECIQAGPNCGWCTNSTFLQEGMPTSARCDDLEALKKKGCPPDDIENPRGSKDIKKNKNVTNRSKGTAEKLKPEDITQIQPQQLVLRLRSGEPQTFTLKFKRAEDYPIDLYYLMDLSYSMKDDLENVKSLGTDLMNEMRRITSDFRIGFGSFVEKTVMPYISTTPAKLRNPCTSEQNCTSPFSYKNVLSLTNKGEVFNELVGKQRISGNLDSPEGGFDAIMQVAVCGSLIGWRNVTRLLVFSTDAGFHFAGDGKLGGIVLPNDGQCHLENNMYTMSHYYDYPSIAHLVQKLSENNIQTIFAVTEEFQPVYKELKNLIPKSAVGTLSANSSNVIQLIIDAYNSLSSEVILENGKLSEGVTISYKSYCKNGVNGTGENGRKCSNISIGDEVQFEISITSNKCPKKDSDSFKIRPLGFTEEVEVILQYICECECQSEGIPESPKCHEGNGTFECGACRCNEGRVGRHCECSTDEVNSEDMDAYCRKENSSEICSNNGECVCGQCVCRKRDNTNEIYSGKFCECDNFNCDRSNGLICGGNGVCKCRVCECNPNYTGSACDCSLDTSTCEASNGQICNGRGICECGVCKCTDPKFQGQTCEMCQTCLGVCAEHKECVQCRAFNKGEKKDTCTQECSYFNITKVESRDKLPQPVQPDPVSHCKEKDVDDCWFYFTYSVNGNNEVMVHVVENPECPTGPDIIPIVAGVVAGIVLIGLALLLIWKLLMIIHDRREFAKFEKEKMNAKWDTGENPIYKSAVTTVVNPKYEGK

In general, IC50 refers to the concentration needed to halve the response being measured. Low readings indicate greater potency, high ones weaker potency. In turn, `COCCNC(=O)OCCC1CCN(C(=O)CC[C@H](NC(=O)[C@@H]2CCCN2S(=O)(=O)c2cc(Cl)cc(Cl)c2)C(=O)O)CC1` [Example 66] returned an IC50 of 3.5 nM.

`CCc1nc2cnccc2n1CC1CCN(C(=O)NC[C@H](NC(=O)[C@@H]2CCCN2S(=O)(=O)c2cc(Cl)cc(Cl)c2)C(=O)O)CC1` [Example 123, Lithium (2S)-2-[1-(3,5-dichlorophenylsulfonyl)-L-prolyl]amino-3-[[4-(2-ethylimidazo[4,5-c]pyridin-1-ylmethyl)piperidin-1-ylcarbonyl]amino]propionate] displayed an IC50 of 4.6 nM.

`CC(C)Nc1nc2cnccc2n1CC1CCN(C(=O)CC[C@H](NC(=O)[C@@H]2CCCN2S(=O)(=O)c2cc(Cl)cc(Cl)c2)C(=O)O)CC1` [Example 87, (2S)-2-[1-(3,5-Dichlorophenylsulfonyl)-L-prolylamino]-5-[(2-isopropylaminoimidazo[4,5-c]pyridin-1-ylmethyl)piperidin-1-yl]-5-oxopentanoic Acid]: 14.1 nM corresponded to half-maximal inhibition (IC50).

In turn, `CCc1nc2c(C)cc(C)nc2n1CC1CCN(C(=O)CC[C@H](NC(=O)[C@@H]2CCCN2S(=O)(=O)c2cc(Cl)cc(Cl)c2)C(=O)O)CC1` [Example 65] registered an IC50 of 45 nM.

Regarding `O=C(O)[C@H](CCC(=O)N1CCC(CNC(=O)N2CCOCC2)CC1)NC(=O)[C@@H]1CCCN1S(=O)(=O)c1cc(Cl)cc(Cl)c1` [Example 67, (2S)-2-[1-(3,5-Dichlorophenylsulfonyl)-L-prolylamino]-5-[4-(4-morpholinylcarbonylaminomethyl)piperidin-1-yl]-5-oxopentanoic Acid], the IC50 was determined as 33 nM.

`CN1CCN(C(=O)NCC2CCN(C(=O)CC[C@H](NC(=O)[C@@H]3CCCN3S(=O)(=O)c3cc(Cl)cc(Cl)c3)C(=O)O)CC2)CC1` [Example 97, (2S)-2-[1-(3,5-Dichlorophenylsulfonyl)-L-prolylamino]-5-[4-[[(4-methylpiperazin-1-yl)carbonylamino]methyl]piperidin-1-yl]-5-oxopentanoic Acid] came in with an IC50 of 122 nM.

Source of the values: US20050143391A1, “Heterocyclic amides with alpha-4 integrin antagonist activity” (J. Uriach Y Compañia S.A., priority 2002, published 2005).
